Measurements taken from patent US20070093491A1, “Novel condensed n-pyrazinyl-sulphonamides and their use in the treament of chemokine mediated diseases” (priority 2003, published 2007).
Structures can show the parent of a compound that is named as a salt.

Tested on: not given
Experiment: not given
Conditions: not given

melting point	SMILES
230 to 231 °C	COc1nc2ncc(Br)cc2nc1NS(=O)(=O)c1cccc(Cl)c1Cl [Example 11, N-(7-Bromo-3-methoxypyrido[2,3-b]pyrazin-2-yl)-2,3-dichlorobenzenesulfonamide]
215 °C	COc1cc2nc(NS(=O)(=O)c3cccc(Cl)c3Cl)c(OC)nc2cc1OC [Example 9, 2,3-Dichloro-N-(3,6,7-trimethoxyquinoxalin-2-yl)benzenesulfonamide]
256 to 257 °C	COc1nc2cnccc2nc1NS(=O)(=O)c1cccc(Cl)c1Cl [Example 13, 2,3-Dichloro-N-(3-methoxypyrido[3,4-b]pyrazin-2-yl)benzenesulfonamide]
233 to 234 °C	COc1nc2cc(Br)cnc2nc1NS(=O)(=O)c1cccc(Cl)c1Cl [Example 12, N-(7-bromo-2-methoxypyrido[2,3-b]pyrazin-3-yl)-2,3-dichlorobenzenesulfonamide]
238 to 239 °C	COc1nc2cccnc2nc1NS(=O)(=O)c1cccc(Cl)c1Cl (as salt: TFA) [Example 7, 2,3-Dichloro-N-(2-methoxypyrido[2,3-b]pyrazin-3-yl)benzenesulfonamide]
283 to 285 °C	COc1nc2cc(Cl)c(Cl)cc2nc1NS(=O)(=O)c1cccc(Cl)c1Cl [Example 10, 2,3-Dichloro-N-(6,7-dichloro-3-methoxyquinoxalin-2-yl)benzenesulfonamide]

Biological target: T1, human recombinant CCR4 receptor (Homo sapiens, UniProt P51679)
T1 construct: host or cells: CHO-K1
T1 sequence (P51679 1-360): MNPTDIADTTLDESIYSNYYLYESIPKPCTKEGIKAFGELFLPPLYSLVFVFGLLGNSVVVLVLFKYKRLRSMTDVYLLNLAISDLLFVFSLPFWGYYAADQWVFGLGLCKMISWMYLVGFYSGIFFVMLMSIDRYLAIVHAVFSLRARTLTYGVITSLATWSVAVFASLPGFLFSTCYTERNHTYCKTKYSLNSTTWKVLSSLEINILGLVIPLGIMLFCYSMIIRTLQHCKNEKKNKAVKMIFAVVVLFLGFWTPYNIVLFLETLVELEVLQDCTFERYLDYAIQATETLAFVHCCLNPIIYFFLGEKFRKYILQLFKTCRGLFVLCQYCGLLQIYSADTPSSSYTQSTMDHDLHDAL
Experiment: FMAT whole cell binding assay (FB-MDC binding to CHO-K1 cells expressing CCR4)
Conditions: inhibition of 2.8 nM FB-MDC binding to CHO-K1 cells stably expressing human recombinant CCR4; two hours incubation at room temperature; FMAT8100 reader
Protocol: FMAT Whole cell Binding Assay
CHO-K1 cells stably expressing the human recombinant CCR4 receptor (Euroscreen; Brussels, Belgium) were cultured in NUT.MIX.F—12(HAM) medium with glutamax-1, containing 10% (v/v) foetal bovine serum and 400 μg ml^−1 geneticin.
Cells were harvested at approximately 70% confluence by treatment with a cell dissociation buffer, and seeded at 5×10^3 cells/100 μl culture medium into wells of a black Costar clear-bottomed 96-well microtitre plates. Plates were incubated overnight at 37° C. in 5% CO2 and used the following day.
Before use, the cell plates were washed twice with 100 μl Hanks balanced salt solution (HBSS). To each well was then added 65 μl of HBSS, 10 μL of 10% DMSO in HBSS±test compound and then 25 μL of 2.8 nM FB-MDC (Applied Biosystems). This fluorescent probe was prepared from a 10 μM stock in 0.08% (v/v) TFA/16% (v/v) acetonitrile, diluted into HBSS.
After two hours incubation in the dark at room temperature, the plates were analysed in an FMAT8100 reader (Applied Biosystems) to measure fluorescence that was associated with binding of FB-MDC to the cells. Compound activity was determined as an pIC50 [log(concentration of compound that results in 50% inhibition)], comparing fluorescence in control and background wells.

IC50	SMILES
1580 nM	COc1nc2ccccc2nc1NS(=O)(=O)c1cccc(Cl)c1Cl [Example 1, 2,3-Dichloro-N-(3-methoxyquinoxalin-2-yl)-benzenesulfonamide]
2000 nM	O=S(=O)(Nc1nc2ccccc2nc1OCc1ccco1)c1cccs1 [Example 5, N-[3-(2-Furylmethoxy)quinoxalin-2-yl]thiophene-2-sulfonamide]
398 nM	COc1nc2ccccc2nc1NS(=O)(=O)c1ccc(Cl)s1 [Example 3, 5-Chloro-N-(3-methoxyquinoxalin-2-yl)thiophene-2-sulfonamide]
